Bridge positions count the residues as written; N and C are the ends. Square brackets hold non-standard residues; d marks the D form. Peptide text beside a SMILES is read from it. * marks the point of attachment. ξ: configuration not given here. Phe(4-COOH) = N[C@@H](Cc1ccc(C(=O)O)cc1)C(=O)O; Bip = N[C@@H](Cc1ccc(-c2ccccc2)cc1)C(=O)O; Phe(3-Me) = Cc1cccc(C[C@H](N)C(=O)O)c1; Cha = N[C@@H](CC1CCCCC1)C(=O)O; Thr(3ξ) = CC(O)[C@H](N)C(=O)O; Carboxymethyl = O=C(O)C*; Orn = NCCC[C@H](N)C(=O)O; Aun = NCCCCCCCCCCC(=O)O; Dab = NCC[C@H](N)C(=O)O; Dap = NC[C@H](N)C(=O)O; AEEA = NCCOCCOCC(=O)O
target: T1, PD-1/PD-L1 interaction (PE-labeled human PD-L1-Ig binding to Jurkat cell line over-expressing human PD-1) (Homo sapiens, UniProt Q15116); experiment: Jurkat-PD-1 Cell Binding High-Content Screening Assay (CBA); format: cell-based; conditions: Jurkat cell line over-expressing human PD-1; PE-labeled PD-L1-Ig 20 nM final; read-out: Jurkat hPD1-PDL1 IC50
T1 construct: expressed in transfected cells; host or cells: Jurkat
Summary of the method: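 Binding of fluorescent PD-L1-Ig (20 nM final) to Jurkat-PD-1 cells was measured by automated imaging after 1 h, following a 2 h compound pre-treatment at 37° C.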

T1 sequence (Q15116 25-288): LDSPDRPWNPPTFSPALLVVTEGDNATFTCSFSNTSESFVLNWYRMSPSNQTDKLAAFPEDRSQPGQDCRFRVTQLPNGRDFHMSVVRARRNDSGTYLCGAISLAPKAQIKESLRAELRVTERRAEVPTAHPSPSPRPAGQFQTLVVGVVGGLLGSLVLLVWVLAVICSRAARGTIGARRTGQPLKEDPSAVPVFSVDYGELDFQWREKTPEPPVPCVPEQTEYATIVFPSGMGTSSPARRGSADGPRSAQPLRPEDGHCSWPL

`Cc1cccc(C[C@@H]2NC(=O)[C@H](CC(=O)O)NC(=O)[C@H](Cc3ccc(OCC(=O)O)cc3)NC(=O)[C@H](CN)NC(=O)CSC[C@@H](C(=O)NCCOCCOCC(=O)N[C@@H](CCN)C(=O)NCCCCCCCCCCC(=O)O)NC(=O)[C@H](C(C)O)NC(=O)[C@H](C(C)C)NC(=O)[C@H](CC3CCCCC3)NC(=O)[C@H](CCN)NC(=O)[C@@H](CC(C)C)NC(=O)[C@H](CCCN)NC(=O)[C@H](Cc3ccc(O)cc3)NC(=O)[C@H](Cc3ccc(-c4ccccc4)cc3)NC(=O)[C@H](C(C)C)NC2=O)c1` (stereo partly drawn) [Compound 2591] ({CH2CO}-[Dap]Y(Carboxymethyl)D[Phe(3-Me)]V[Bip]Y[Orn][dL][Dab][Cha]V[Thr(3ξ)]C[AEEA][Dab][Aun]-OH; thioether N-14) and `Cc1cccc(C[C@@H]2NC(=O)[C@H](CC(=O)O)NC(=O)[C@H](Cc3ccc(OCC(=O)O)cc3)NC(=O)[C@H](CN)NC(=O)CSC[C@@H](C(=O)NCCOCCOCC(=O)N[C@@H](CCN)C(=O)NCCCCCCCCCCC(=O)O)NC(=O)[C@H](CCCN)NC(=O)[C@H](C(C)C)NC(=O)[C@H](CC3CCCCC3)NC(=O)[C@H](CCN)NC(=O)[C@@H](CC(C)C)NC(=O)[C@H](CCCN)NC(=O)[C@H](Cc3ccc(O)cc3)NC(=O)[C@H](Cc3ccc(-c4ccccc4)cc3)NC(=O)[C@H](C(C)C)NC2=O)c1` [Compound 2592] ({CH2CO}-[Dap]Y(Carboxymethyl)D[Phe(3-Me)]V[Bip]Y[Orn][dL][Dab][Cha]V[Orn]C[AEEA][Dab][Aun]-OH; thioether N-14) are within 1.5-fold of each other in IC50: 9.5 nM for the first, 10.8 nM for the second.

First: CC(C)C[C@H]1NC(=O)[C@H](CCCN)NC(=O)[C@H](C(C)C)NC(=O)[C@H](Cc2ccc(-c3ccccc3)cc2)NC(=O)[C@H](C(C)C)NC(=O)[C@H](Cc2c[nH]c3ccccc23)NC(=O)[C@H](CC(=O)O)NC(=O)[C@H](Cc2ccc(C(=O)O)cc2)NC(=O)[C@H](Cc2ccc(OCC(=O)O)cc2)NC(=O)CSC[C@@H](C(=O)NCCOCCOCC(=O)N[C@@H](CCCCN)C(=O)NCCCCCCCCCCC(=O)O)NC(=O)[C@H](CCCCN)NC(=O)[C@H](C(C)C)NC(=O)[C@H](CC2CCCCC2)NC(=O)[C@H](CCN)NC1=O [Compound 2593] ({CH2CO}-Y(Carboxymethyl)[Phe(4-COOH)]DWV[Bip]V[Orn][dL][Dab][Cha]VKC[AEEA]K[Aun]-OH; thioether N-14)
Second: CC(C)C[C@H]1NC(=O)[C@H](CCCN)NC(=O)[C@H](C(C)C)NC(=O)[C@H](Cc2ccc(-c3ccccc3)cc2)NC(=O)[C@H](C(C)C)NC(=O)[C@H](Cc2c[nH]c3ccccc23)NC(=O)[C@H](CC(=O)O)NC(=O)[C@H](Cc2ccc(OCC(=O)O)cc2)NC(=O)[C@H](Cc2ccc(OCC(=O)O)cc2)NC(=O)CSC[C@@H](C(=O)NCCOCCOCC(=O)N[C@@H](CCCCN)C(=O)NCCCCCCCCCCC(=O)O)NC(=O)[C@H](CCCN)NC(=O)[C@H](C(C)C)NC(=O)[C@H](CC2CCCCC2)NC(=O)[C@H](CCN)NC1=O [Compound 2599] ({CH2CO}-Y(Carboxymethyl)Y(Carboxymethyl)DWV[Bip]V[Orn][dL][Dab][Cha]V[Orn]C[AEEA]K[Aun]-OH; thioether N-14)
The IC50 of the first is 2.2-fold higher: 18.4 nM for the first, 8.2 nM for the second.

Compared with `CC(C)C[C@H]1NC(=O)[C@H](CCCN)NC(=O)[C@H](C(C)C)NC(=O)[C@H](Cc2ccc(-c3ccccc3)cc2)NC(=O)[C@H](C(C)C)NC(=O)[C@H](Cc2c[nH]c3ccccc23)NC(=O)[C@H](CC(=O)O)NC(=O)[C@H](Cc2ccc(OCC(=O)O)cc2)NC(=O)[C@H](CN)NC(=O)CSC[C@@H](C(=O)NCCOCCOCC(=O)N[C@@H](CCCCN)C(=O)NCCCCCCCCCCC(=O)O)NC(=O)[C@H](CCCCN)NC(=O)[C@H](C(C)C)NC(=O)[C@H](CC2CCCCC2)NC(=O)[C@H](CCN)NC1=O` [Compound 2595] ({CH2CO}-[Dap]Y(Carboxymethyl)DWV[Bip]V[Orn][dL][Dab][Cha]VKC[AEEA]K[Aun]-OH; thioether N-14), `Cc1cccc(C[C@@H]2NC(=O)[C@H](CC(=O)O)NC(=O)[C@H](Cc3ccc(OCC(=O)O)cc3)NC(=O)[C@H](CN)NC(=O)CSC[C@@H](C(=O)NCCOCCOCC(=O)N[C@@H](CCCCN)C(=O)NCCCCCCCCCCC(=O)O)NC(=O)[C@H](CCCN)NC(=O)[C@H](C(C)C)NC(=O)[C@H](CC3CCCCC3)NC(=O)[C@H](CCN)NC(=O)[C@@H](CC(C)C)NC(=O)[C@H](CCCN)NC(=O)[C@H](C(C)C)NC(=O)[C@H](Cc3ccc(-c4ccccc4)cc3)NC(=O)[C@H](C(C)C)NC2=O)c1` [Compound 2597] ({CH2CO}-[Dap]Y(Carboxymethyl)D[Phe(3-Me)]V[Bip]V[Orn][dL][Dab][Cha]V[Orn]C[AEEA]K[Aun]-OH; thioether N-14) is 3.8-fold lower in IC50: 34.1 nM for the first, 8.9 nM for the second.

`Cc1cccc(C[C@@H]2NC(=O)[C@H](CC(=O)O)NC(=O)[C@H](Cc3ccc(OCC(=O)O)cc3)NC(=O)[C@H](CN)NC(=O)CSC[C@@H](C(=O)NCCOCCOCC(=O)N[C@@H](CCCCN)C(=O)NCCCCCCCCCCC(=O)O)NC(=O)[C@H](CN)NC(=O)[C@H](C(C)C)NC(=O)[C@H](CC3CCCCC3)NC(=O)[C@H](CCN)NC(=O)[C@@H](CC(C)C)NC(=O)[C@H](CCCN)NC(=O)[C@H](C(C)C)NC(=O)[C@H](Cc3ccc(-c4ccccc4)cc3)NC(=O)[C@H](C(C)C)NC2=O)c1` [Compound 2596] ({CH2CO}-[Dap]Y(Carboxymethyl)D[Phe(3-Me)]V[Bip]V[Orn][dL][Dab][Cha]V[Dap]C[AEEA]K[Aun]-OH; thioether N-14) and `Cc1cccc(C[C@@H]2NC(=O)[C@H](CC(=O)O)NC(=O)[C@H](Cc3ccc(OCC(=O)O)cc3)NC(=O)[C@H](CN)NC(=O)CSC[C@@H](C(=O)NCCOCCOCC(=O)N[C@@H](CCCCN)C(=O)NCCCCCCCCCCC(=O)O)NC(=O)[C@H](CCCNC(=N)N)NC(=O)[C@H](C(C)C)NC(=O)[C@H](CC3CCCCC3)NC(=O)[C@H](CCN)NC(=O)[C@@H](CC(C)C)NC(=O)[C@H](CCCN)NC(=O)[C@H](C(C)C)NC(=O)[C@H](Cc3ccc(-c4ccccc4)cc3)NC(=O)[C@H](C(C)C)NC2=O)c1` [Compound 2598] ({CH2CO}-[Dap]Y(Carboxymethyl)D[Phe(3-Me)]V[Bip]V[Orn][dL][Dab][Cha]VRC[AEEA]K[Aun]-OH; thioether N-14) are within 1.5-fold of each other in IC50: 9.6 nM for the first, 10.6 nM for the second.

Going from `CC(C)C[C@H]1NC(=O)[C@H](CCCN)NC(=O)[C@H](C(C)C)NC(=O)[C@H](Cc2ccc(-c3ccccc3)cc2)NC(=O)[C@H](C(C)C)NC(=O)[C@H](Cc2c[nH]c3ccccc23)NC(=O)[C@H](CC(=O)O)NC(=O)[C@H](Cc2ccc(OCC(=O)O)cc2)NC(=O)[C@H](Cc2ccc(OCC(=O)O)cc2)NC(=O)CSC[C@@H](C(=O)NCCOCCOCC(=O)N[C@@H](CCCCN)C(=O)NCCCCCCCCCCC(=O)O)NC(=O)[C@H](CN)NC(=O)[C@H](C(C)C)NC(=O)[C@H](CC2CCCCC2)NC(=O)[C@H](CCN)NC1=O` [Compound 2600] ({CH2CO}-Y(Carboxymethyl)Y(Carboxymethyl)DWV[Bip]V[Orn][dL][Dab][Cha]V[Dap]C[AEEA]K[Aun]-OH; thioether N-14) to `CC(C)C[C@H]1NC(=O)[C@H](CCCN)NC(=O)[C@H](C(C)C)NC(=O)[C@H](Cc2ccc(-c3ccccc3)cc2)NC(=O)[C@H](C(C)C)NC(=O)[C@H](Cc2c[nH]c3ccccc23)NC(=O)[C@H](CC(=O)O)NC(=O)[C@H](Cc2ccc(C(=O)O)cc2)NC(=O)[C@H](Cc2ccc(OCC(=O)O)cc2)NC(=O)CSC[C@@H](C(=O)NCCCCCCCCCCC(=O)O)NC(=O)[C@H](CCCCN)NC(=O)[C@H](C(C)C)NC(=O)[C@H](CC2CCCCC2)NC(=O)[C@H](CCN)NC1=O` [Compound 2601] ({CH2CO}-Y(Carboxymethyl)[Phe(4-COOH)]DWV[Bip]V[Orn][dL][Dab][Cha]VKC[Aun]-OH; thioether N-14), the IC50 rises from 10.3 nM to 18.2 nM (1.8-fold). The first is the more potent here.
